According to US20050080140A1, “Method for treating or preventing inflammatory disorders” (AnGes MG, Inc., priority 2003, published 2005):
“Also recorded” adds a separate entry of the source.

Assays:
IL-13 gene = assay: RT-PCR analysis of IL-13 mRNA; format: cell-based, human; details: HUVEC, 10 μM cPGI, 12 h, FIG. 1A
Experimental: (§1) For analysis of IL-13, human vascular endothelial cells (1.2×10^4 cells/cm^2) were stimulated with cPGI (10 μM) for 12 h, and total RNA was prepared from stimulated cells with Isogen (Nippon Gene). For analysis of COX-2, human vascular endothelial cells (1.2×10^4 cells/cm^2) were pretreated with TNF-α (1 ng/ml) and IL-1b (20 ng/ml) for 1 h, and then treated with cPGI (0, 10 μM), anti-human IL-13 monoclonal antibody (0, 0.5 μg/ml) and control IgG (0, 0.5 μg/ml) for 12 h to prepare total RNA. The total RNA (0.5 μg) was used for analysis by SuperScript RT-PCR system (Invitrogen) according to the manufacturer's instructions. The oligonucleotide primers used were IL-13-s (5′-[…]-3′ (SEQ ID NO: 6); sense) and IL-13-as (5′-[…]-3′ (SEQ ID NO: 7); antisense) for human IL-13, β-actin-s (5′-[…]-3′ (SEQ ID NO: 8); sense) and β-actin-as (5′-[…]-3′ (SEQ ID NO: 9); antisense) for human β-actin, and COX-2-s (5′-[…]-3′ (SEQ ID NO: 10); sense) and COX-2-as (5′-[…]-3′ (SEQ ID NO: 11); antisense) for human COX-2. For each PCR amplification, 1 μl of cDNA was used in a 50 μl reaction. Reverse transcription-PCR (RT-PCR) for β-actin (25 cycles) was used as an internal control for mRNA abundance. For IL-13 and COX-2 genes, the number of cycles ranged from 25 to 45. […] Samples were normalized based on equivalent expression of β-actin.

COX-2 gene = assay: RT-PCR analysis of COX-2 mRNA; format: cell-based, human; details: HUVEC, cPGI 10 μM, 12 h, FIG. 5 lane 3
Experimental: as §1

IL-13 = IL-13 ELISA of culture medium of human vascular endothelial cells; format: cell-based; details: 24 h; for endogenous IL-13 expression in PGI2-deprived cells: HUVEC treated with PGIS siRNA, cPGI 10 μM, FIG. 6C
Experimental: Human vascular endothelial cells (1.2×10^4 cells/cm^2) were cultured in EGM-2 containing 2% FBS and several concentrations of cPGI with or without TNF-α for 24 h. Incubation media were collected and stored at −80° C. before assay. Amounts of IL-13 were measured with human IL-13 ELISA system (Amersham Pharmacia Biotech, Buckinghamshire, UK) and amounts of PGI2 were measured as the amounts of 6-keto-PGI1α, a stable metabolite of PGI2, with 6-keto-PGI1α ELISA kit (Cayman Chemical Co., Ann Arbor, Mich.) according to the manufacturers' instructions.
siRNA duplexes with the following sense and antisense sequences were made: PGIS1, 5′-[…]-3′ (SEQ ID NO: 12; sense) and 5′-[…]-3′ (SEQ ID NO: 13; antisense); PGIS2, 5′-[…]-3′ (SEQ ID NO: 14; sense) and 5′-[…]-3′ (SEQ ID NO: 15; antisense); PGIS3, 5′-[…]-3′ (SEQ ID NO: 16; sense) and 5′-[…] (SEQ ID NO: 17; antisense); and PGIS4, 5′-[…]-3′ (SEQ ID NO:, 18; sense) and 5′-[…]-3′ (SEQ ID NO: 19; antisense). siRNAs were synthesized and annealed by Dharmacon Research Inc. (Lafayette, CO). Control non-silencing siRNA, a duplex of sense (5′-UUCUCCGAACGUGUCACGUdTdT-3′; SEQ ID NO: 20) and antisense (5′-ACGUGACACGUUCGGAGAAdTdT-3′; SEQ ID NO: 21) sequences, was purchase from Qiagen (Valencia, Calif.). The cells were initially transfected with 200 pmol per well of the annealed RNA mixture or the same amount of control siRNA using LipofectAMINE2000 (Invitrogen), and 12 h later secondly transfected with the same amount of siRNAs using HVJ-liposome transfection kit (GenomeONE; Ishihara Sangyo, Osaka, Japan) according to the manufacturers' instructions. The cells were retransfected with the siRNAs every 3 days using LipofectAMINE2000 and HVJ-liposome, and used for analyses 10 days after transfection. Microsomal fractions of the cells were prepared and analyzed by immunoblotting with anti-PGIS P4 polyclonal antibody as described previously (Hatae et al., J. Biol. Chem. (2001) 276: 46260-7). The cells treated with siRNAs for 10 days were cultured in fresh EGM-2 containing 2% FBS and TNF-α (0, 10 ng/ml). with or without cPGI (10 μM) for 24 h. The incubation media were collected, and amounts of 6-keto-PGI1α or IL-13 were measured with ELISA kit.

PPRE (PPARδ activation) = assay: PPREx3-luciferase reporter assay; format: cell-based, human; details: HUVEC, 24 h
Experimental: Primary cultured human umbilical vein endothelial cells (HUVEC) and human aortic endothelial cells (HAEC) were obtained from Kurabo Co. Ltd. (Tokyo, Japan) and were cultured in EGM-2 growth medium supplemented with 2% fetal bovine serum (FBS) and a mixture of growth factors according to the supplier's instructions. Total RNA from the cells in culture was prepared with Isogen (Nippon Gene, Tokyo, Japan). Human embryonic kidney HEK-293 cells were cultured in DMEM containing 10% FBS, 2 mM L-glutamine, 100 U/ml penicillin and […] streptomycin as described previously (Hatae et al., J. Biol. Chem. (2001) 276: 46260-7). […] HEK-293 cells were transfected with DNA using lipofectAMINE (Invitrogen, Carlsbad, Calif.) as described previously (Hatae et al., J. Biol. Chem. (2001) 276: 46260-7). Human vascular endothelial cells were transfected with TransIT LT-1 (PanVera Co., Madison, Wis.). Transfections were performed at a ratio of 1 μg of DNA to 3.0 μl of the reagents, and cells were incubated in serum-free EGM-2 at 37° C. for 5 h. Subsequently, cells were grown in fresh EGM-2 containing 2% FBS and a mixture of growth factors for 12 h before analysis. For reporter assay, human vascular endothelial cells (1.2×10^4 cells/cm^2) were cotransfected with 0.2 μg of the PPREx3-luciferase reporter vector and 0.1 μg of β-galactosidase expression vector by use of TransIT LT-1. After 17 h of transfection, cells were washed with PBS, incubated in EGM-2 containing 2% FBS and cPGI (0-100 μM) for 24 h at 37° C., and subjected to luciferase assay as described previously (Hatae et al., J. Biol. Chem. (2001) 276: 46260-7). The luciferase activity of the extract was normalized to β-galactosidase activity.

luciferase activity of PPRE reporter, exogenous cPGI added to TNF-α (PPRE (PPARδ activation); TNF-α 0-10 ng/ml with cPGI 0, 2 or 10 μM, dose-dependent, FIG. 4B): enhanced
luciferase activity of reporter vector containing PPRE (PPRE (PPARδ activation); cPGI 0, 1, 10 and 100 μM, FIG. 1C): dose-dependent
SMILES: CCCCC[C@H](O)/C=C/[C@@H]1[C@H]2C/C(=C/CCCC(=O)O)C[C@H]2C[C@H]1O [cPGI, carbaprostacyclin]
IL-13 mRNA expression (RT-PCR) (IL-13 gene): apparent induction
inducible expression of COX-2 (TNF-α and IL-1 induced) (COX-2 gene): significantly inhibited
endogenous IL-13 expression in PGI2-deprived cells (IL-13): significantly increased
endogenous IL-13 expression in PGI2-deprived cells (IL-13; listed as carbaprostacyclin): significantly induced
production of IL-13, exogenous cPGI added to TNF-α (IL-13; HUVEC, TNF-α 0-10 ng/ml with cPGI 0, 2 or 10 μM, dose-dependent, FIG. 4C): enhanced
IL-13 protein in the culture medium (ELISA) (IL-13; HUVEC, cPGI 0, 1, 10 and 100 μM, FIG. 1B): detectable; also recorded: dose-dependent
